Data: patent publication US7205305B2, “Inhibitors of p38” (Vertex Pharmaceuticals Incorporated, priority 1996, dated 2007)

These molecules were tested against activated p38 (Homo sapiens, UniProt Q16539) (assay: Inhibition of phosphorylation of EGF receptor peptide ("kinase")). Settings: inhibition of phosphorylation of EGF receptor peptide by activated p38.
Type: biochemical
Protocol: This assay was carried out in the presence of 10 mM MgCl2, 25 mM β-glycerophosphate, 10% glycerol and 100 mM HEPES buffer at pH 7.6. […] The stock solution was aliquotted into vials. A fixed volume of DMSO or inhibitor in DMSO (final concentration of DMSO in reaction was 5%) was introduced to each vial, mixed and incubated for 15 minutes at room temperature. EGF receptor peptide, […], a phosphoryl acceptor in p38-catalyzed kinase reaction (1), was added to each vial to a final concentration of 200 μM. The kinase reaction was initiated with ATP (100 μM) and the vials were incubated at 30° C. After 30 minutes, the reactions were quenched with equal volume of 10% trifluoroacetic acid (TFA).
The phosphorylated peptide was quantified by HPLC analysis. Separation of phosphorylated peptide from the unphosphorylated peptide was achieved on a reverse phase column (Deltapak, 5 μm, C18 100D, part no. 011795) with a binary gradient of water and acteonitrile, each containing 0.1% TFA.

Chain of activated p38 (Q16539 whole entry): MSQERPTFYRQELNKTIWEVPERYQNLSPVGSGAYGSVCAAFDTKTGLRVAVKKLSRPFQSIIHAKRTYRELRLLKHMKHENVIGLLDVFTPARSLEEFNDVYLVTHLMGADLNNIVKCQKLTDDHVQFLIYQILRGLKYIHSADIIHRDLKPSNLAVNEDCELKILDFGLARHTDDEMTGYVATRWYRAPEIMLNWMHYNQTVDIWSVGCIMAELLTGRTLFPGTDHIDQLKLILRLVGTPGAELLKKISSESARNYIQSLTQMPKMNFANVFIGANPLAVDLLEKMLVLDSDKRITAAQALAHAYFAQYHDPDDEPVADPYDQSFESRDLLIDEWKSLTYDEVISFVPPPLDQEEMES

SMILES	IC50 [µM]
COc1ccc(-c2c(=O)ncn3nc(Sc4ccccc4)ccc23)cc1 [Compound 10]	≥ 1
Nc1ccc(F)c(-c2c(=O)ncn3nc(Sc4ccc(F)cc4)ccc23)c1Cl [Compound 42]	≥ 1
O=c1ncn2nc(Sc3ccc(F)cc3Cl)ccc2c1-c1cc2c(cc1Cl)OCO2 [Compound 45]	0.1 to 1
CN(C)/C=N\c1ccc(-c2c(=O)ncn3nc(Sc4ccc(F)cc4)ccc23)c(Cl)c1 [Compound 50]	≥ 1
CC(=O)Nc1ccc(-c2c(=O)ncn3nc(Sc4ccc(F)cc4)ccc23)c(Cl)c1 [Compound 51]	0.1 to 1
O=C(CN1CCOCC1)Nc1ccc(-c2c(=O)ncn3nc(Sc4ccc(F)cc4)ccc23)c(Cl)c1 [Compound 52]	0.1 to 1
Nc1cc(F)c(F)cc1SC1=NN2CNC(=O)C(c3c(Cl)cccc3Cl)=C2C=C1 [Compound 119]	0.1 to 1
NC(=O)C(c1ccc(Sc2ccccc2)nn1)c1ccc(Cl)cc1Cl (stereo not drawn) [Compound 203]	≥ 1
NC(=O)C(c1ccc(F)cc1)c1ccc(Sc2ccccc2)nn1 (stereo not drawn) [Compound 204]	≥ 1
Cc1ccc(Sc2ccc(C(C(N)=O)c3ccc(Cl)cc3Cl)nn2)cc1 (stereo not drawn) [Compound 205]	≥ 1
NC(=O)C(c1ccc(Sc2ccc(F)cc2Cl)nn1)c1ccc(N)cc1Cl (stereo not drawn) [Compound 207]	≥ 1
NC(=O)C(c1cccc(-c2cccc([N+](=O)[O-])c2)n1)c1c(Cl)cccc1Cl (stereo not drawn) [Compound 308]	≥ 1
CSc1ccc(-c2cccc(C(C(N)=O)c3c(Cl)cccc3Cl)n2)cc1 (stereo not drawn) [Compound 314]	≥ 1
NC(=O)C(c1cccc(-c2ccc(C(=O)O)cc2)n1)c1c(Cl)cccc1Cl (stereo not drawn) [Compound 315]	≥ 1
NC(=O)C(c1cccc(-c2ccc(C=O)cc2)n1)c1c(Cl)cccc1Cl (stereo not drawn) [Compound 316]	≥ 1
NC(=O)C(c1cccc(-c2ccsc2)n1)c1c(Cl)cccc1Cl (stereo not drawn) [Compound 318]	0.1 to 1
NC(=O)C(c1cccc(-c2ccc(C(F)(F)F)cc2)n1)c1c(Cl)cccc1Cl (stereo not drawn) [Compound 319]	≥ 1
NC(=O)C(c1cccc(-c2cccc(C=O)c2)n1)c1c(Cl)cccc1Cl (stereo not drawn) [Compound 321]	≥ 1
NC(=O)C(c1cccc(-c2ccc(Cl)s2)n1)c1c(Cl)cccc1Cl (stereo not drawn) [Compound 326]	≥ 1
NC(=O)C(c1cccc(-c2ccccc2C=O)n1)c1c(Cl)cccc1Cl (stereo not drawn) [Compound 327]	0.1 to 1
NC(=O)C(c1cccc(-c2cccc([N+](=O)[O-])c2)n1)c1c(F)cccc1Cl (stereo not drawn) [Compound 328]	≥ 1

SMILES	IC50 [µM]
NC(=O)C(c1cccc(-c2ccc(Cl)cc2)n1)c1c(F)cccc1Cl (stereo not drawn) [Compound 330]	≥ 1
Cc1ccc(-c2cccc(C(C(N)=O)c3c(F)cccc3Cl)n2)cc1 (stereo not drawn) [Compound 331]	≥ 1
CSc1ccc(-c2cccc(C(C(N)=O)c3c(F)cccc3Cl)n2)cc1 (stereo not drawn) [Compound 334]	≥ 1
NC(=O)C(c1cccc(-c2ccc(C(=O)O)cc2)n1)c1c(F)cccc1Cl (stereo not drawn) [Compound 336]	≥ 1
NC(=O)C(c1cccc(-c2ccc(C=O)cc2)n1)c1c(F)cccc1Cl (stereo not drawn) [Compound 337]	≥ 1
NC(=O)C(c1cccc(-c2cccs2)n1)c1c(F)cccc1Cl (stereo not drawn) [Compound 338]	≥ 1
NC(=O)C(c1cccc(-c2ccsc2)n1)c1c(F)cccc1Cl (stereo not drawn) [Compound 339]	≥ 1
NC(=O)C(c1cccc(-c2ccc(C(F)(F)F)cc2)n1)c1c(F)cccc1Cl (stereo not drawn) [Compound 340]	≥ 1
NC(=O)C(c1cccc(-c2cccc(C=O)c2)n1)c1c(F)cccc1Cl (stereo not drawn) [Compound 342]	≥ 1
COc1cccc(-c2cccc(C(C(N)=O)c3c(F)cccc3Cl)n2)c1 (stereo not drawn) [Compound 343]	≥ 1
NC(=O)C(c1cccc(-c2cccc(F)c2)n1)c1c(F)cccc1Cl (stereo not drawn) [Compound 344]	≥ 1
COc1ccccc1-c1cccc(C(C(N)=O)c2c(F)cccc2Cl)n1 (stereo not drawn) [Compound 345]	≥ 1
NC(=O)C(c1cccc(-c2ccc(Cl)s2)n1)c1c(F)cccc1Cl (stereo not drawn) [Compound 347]	≥ 1
NC(=O)C(c1cccc(-c2ccccc2C=O)n1)c1c(F)cccc1Cl (stereo not drawn) [Compound 348]	≥ 1
NC(=O)C(c1cccc(-c2ccc3ccccc3c2)n1)c1c(Cl)cccc1Cl (stereo not drawn) [Compound 354]	≥ 1
NC(=O)C(c1cccc(-c2cc3ccccc3o2)n1)c1c(Cl)cccc1Cl (stereo not drawn) [Compound 355]	≥ 1
NC(=O)C(c1cccc(-c2cc3ccccc3s2)n1)c1c(Cl)cccc1Cl (stereo not drawn) [Compound 356]	≥ 1
NC(=O)C(c1cccc(-c2occc2C=O)n1)c1c(F)cccc1Cl (stereo not drawn) [Compound 357]	≥ 1
NCCNCc1ccccc1-c1cccc(C(C(N)=O)c2c(Cl)cccc2Cl)n1 (stereo not drawn) [Compound 359]	≥ 1
NC(=O)C(c1cccc(-c2ccccc2CNCC(O)CO)n1)c1c(Cl)cccc1Cl (stereo not drawn) [Compound 360]	≥ 1
NC(=O)C(c1cccc(-c2ccccc2)n1)c1c(F)cccc1F (stereo not drawn) [Compound 366]	≥ 1

SMILES	IC50 [µM]
NC(=O)C(c1cccc(-c2ccccc2C(F)(F)F)n1)c1c(Cl)cccc1Cl (stereo not drawn) [Compound 374]	0.1 to 1
NC(=O)C(c1cccc(-c2ccccc2Cl)n1)c1c(Cl)cccc1Cl (stereo not drawn) [Compound 375]	≤ 0.1
Cc1cccc(-c2cccc(C(C(N)=O)c3c(Cl)cccc3Cl)n2)c1C (stereo not drawn) [Compound 376]	≤ 0.1
CCc1ccccc1-c1cccc(C(C(N)=O)c2c(Cl)cccc2Cl)n1 (stereo not drawn) [Compound 377]	≤ 0.1
NC(=O)C(c1cccc(-c2ccccc2CCO)n1)c1c(Cl)cccc1Cl (stereo not drawn) [Compound 378]	≤ 0.1
NC(=O)C(c1cccc(-c2cccc(C(F)(F)F)c2)n1)c1c(Cl)cccc1Cl (stereo not drawn) [Compound 379]	≤ 0.1
NC(=O)C(c1cccc(-c2cccc(CO)c2)n1)c1c(Cl)cccc1Cl (stereo not drawn) [Compound 380]	0.1 to 1
Cc1cccc(C)c1C(C(N)=O)c1cccc(-c2ccccc2)n1 (stereo not drawn) [Compound 381]	0.1 to 1
NC(=O)C(c1cccc(-c2cccc(Cl)c2Cl)n1)c1c(Cl)cccc1Cl (stereo not drawn) [Compound 382]	≤ 0.1
NC(=O)C(c1cccc(-c2ccccc2F)n1)c1c(Cl)cccc1Cl (stereo not drawn) [Compound 383]	≤ 0.1
NC(=O)C(c1cncc(-c2ccccc2)n1)c1c(Cl)cccc1Cl (stereo not drawn) [Compound 384]	0.1 to 1
COCOc1ccccc1-c1cccc(C(C(N)=O)c2c(Cl)cccc2Cl)n1 (stereo not drawn) [Compound 385]	0.1 to 1
NC(=O)C(c1cccc(-c2ccccc2O)n1)c1c(Cl)cccc1Cl (stereo not drawn) [Compound 386]	≥ 1
NC(=O)C(c1cccc(-c2cc(C(F)(F)F)cc(C(F)(F)F)c2)n1)c1c(Cl)cccc1Cl (stereo not drawn) [Compound 387]	≥ 1
NC(=O)C(c1cccc(-c2cc(F)c(F)c(F)c2)n1)c1c(Cl)cccc1Cl (stereo not drawn) [Compound 388]	≤ 0.1
COCOc1cc(F)ccc1-c1cccc(C(C(N)=O)c2c(Cl)cccc2Cl)n1 (stereo not drawn) [Compound 389]	0.1 to 1
NC(=O)C(c1cccc(-c2ccc(F)cc2O)n1)c1c(Cl)cccc1Cl (stereo not drawn) [Compound 390]	≥ 1
NC(=O)C(c1cccc(-c2ccc(F)cc2C(F)(F)F)n1)c1c(Cl)cccc1Cl (stereo not drawn) [Compound 391]	0.1 to 1
NC(=O)C(c1cccc(-c2cc(Cl)cc(Cl)c2)n1)c1c(Cl)cccc1Cl (stereo not drawn) [Compound 392]	0.1 to 1
COCOCc1cc(F)ccc1-c1cccc(C(C(N)=O)c2c(Cl)cccc2Cl)n1 (stereo not drawn) [Compound 393]	0.1 to 1
NC(=O)C(c1cccc(-c2ccc(F)cc2CO)n1)c1c(Cl)cccc1Cl (stereo not drawn) [Compound 394]	≤ 0.1
